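How tested: cells in 96-well plates exposed to compound for 48 hours at five concentrations. TGI denotes the concentration required for complete inhibition of growth.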
Experiments:
Assay in all cases: NCI-60 cell line screen, 48 h
SNB-19 CNS = tested on: SNB-19 CNS
HS 578T breast = tested on: HS 578T breast
SR leukemia = tested on: SR leukemia
UACC-62 melanoma = tested on: UACC-62 melanoma
A498 renal = tested on: A498 renal
ACHN renal = tested on: ACHN renal
MOLT-4 leukemia = tested on: MOLT-4 leukemia
COLO 205 colon = tested on: COLO 205 colon
UACC-257 melanoma = tested on: UACC-257 melanoma
MDA-N = tested on: MDA-N
CAKI-1 renal = tested on: CAKI-1 renal
LOX IMVI melanoma = tested on: LOX IMVI melanoma

| Compound | TGI (SNB-19 CNS) [µM] | TGI (HS 578T breast) [µM] | TGI (SR leukemia) [µM] | TGI (UACC-62 melanoma) [µM] | TGI (A498 renal) [µM] | TGI (ACHN renal) [µM] | TGI (MOLT-4 leukemia) [µM] | TGI (COLO 205 colon) [µM] | TGI (UACC-257 melanoma) [µM] | TGI (MDA-N) [µM] | TGI (CAKI-1 renal) [µM] | TGI (LOX IMVI melanoma) [µM] |
| --- | --- | --- | --- | --- | --- | --- | --- | --- | --- | --- | --- | --- |
| Nc1ncc2c(n1)-c1ccccc1OC2NC1CC1 (centres undefined) | > 100 | > 100 | > 100 | > 100 | > 100 | > 100 | > 100 | > 100 | > 100 | > 100 | > 100 | > 100 |
| CSc1nc(=S)[nH]c2n[nH]c(C)c12 | > 100 | > 100 | > 100 | > 100 | > 100 |  | > 100 | > 100 | > 100 | > 100 | > 100 | > 100 |
| CCCCCCCCCC(=O)OCC1(CO)C/C(=C/CC(C(C)C)C(C)C)C(=O)O1 (centres undefined) | > 100 | > 100 | > 100 | > 100 | > 100 | > 100 | 54 | 28.7 | > 100 | > 100 | 56.6 | > 100 |
| CC(=O)Nc1c(C)cc(OCC(=O)O)cc1C | > 100 | > 100 | > 100 | > 100 | > 100 | > 100 |  | > 100 | > 100 | > 100 | > 100 | > 100 |
| CSc1nc(C)cc(Nc2ccc(O)c(CN3CCCCC3)c2)n1 | > 100 | > 100 | > 100 | > 100 | 53.1 | > 100 | > 100 | > 100 |  | 75.4 | > 100 | > 100 |
| CCN(CC)c1ccc(/C=C/C2=NN(c3cccc(S(=O)(=O)O)c3)C3(C2)C(Cl)C(=O)N3c2nc3ccccc3s2)cc1 (centres undefined) | 29.7 | > 90.2 | 7.41 | 20.6 | 24.8 | 23.8 | 13.9 | 31.8 | 22.6 | 30 | 8.26 | 9.12 |
| O=C(Nc1ccccc1)N1CCNC1=S |  | > 100 | > 100 | > 100 | > 100 | > 100 | > 100 | > 100 |  | > 100 | > 100 | > 100 |
| O=c1cc(-c2ccc(O)c(O)c2)oc2cc(OC3OC(CO)C(O)C(O)C3O)cc(O)c12 (centres undefined) | > 100 | > 100 | > 100 | > 100 | > 100 | > 100 | > 100 | > 100 | > 100 | > 100 | > 100 | > 100 |
| CC1=NC(=Cc2ccc(Cl)cc2)C(=O)N1n1c(-c2ccccc2)nc2ccccc2c1=O | > 100 | 57.3 | > 100 | > 100 | 63.4 | 46.7 | > 100 | > 100 | 75.5 | > 100 | 69.1 | > 100 |
| CCC(=O)N(c1ccccc1)C(C)CN1CCC(O)(c2ccccc2)CC1 (centres undefined) | > 100 | > 100 | > 100 | > 100 | > 100 | > 100 | > 100 | > 100 | > 100 | > 100 | > 100 | > 100 |
| O=C(CNC(=O)OCc1ccccc1)NCCCCC(NC(=O)OCc1ccccc1)C(=O)O (centres undefined) | > 100 | > 100 | > 100 | > 100 | > 100 | > 100 | > 100 | > 100 | > 100 | > 100 | > 100 | > 100 |
| CCOP(=O)(CS(C)=O)O[C@@H]1C[C@H](C)CC[C@H]1C(C)C (some centres undefined) | 25.7 | 11.3 | > 100 | 7.08 | 4.87 | 15.8 | > 100 | 19.8 | 18.7 | 8.97 | 12.8 | 3.77 |
| COc1ccccc1NC(=O)C(C#N)=C(SC)SC | > 100 | > 100 | > 100 | > 100 | > 100 | > 100 | > 100 | > 100 | > 100 | > 100 | > 100 | > 100 |
| CCCCCCN(C(=O)Oc1ccccc1)C(C#N)c1ccccc1 (centres undefined) | > 100 | > 100 | > 100 | > 100 | > 100 | > 100 | > 100 | > 100 | > 100 | > 100 | > 100 | > 100 |
| CCOC(=O)CNC(=O)C(CSC(=O)N(O)c1ccc(Br)cc1)NC(=O)CCC(N)C(=O)OCC (centres undefined) | > 50 | > 50 | > 50 | > 50 | > 50 | > 50 | > 50 | > 50 | > 50 | > 50 | > 50 | > 50 |
| COc1ccc(NC=O)c(C(O)CCNC(C)=O)c1 (centres undefined) | > 100 | > 100 | > 100 | > 100 | > 100 | > 100 | > 100 | > 100 | > 100 | > 100 | > 100 | > 100 |
| O=C(Cc1ccccc1)N/N=C(/CCN1CCCC1)CC(c1ccccc1)c1c(O)c2ccccc2oc1=O (centres undefined) | > 100 | > 100 | > 100 | > 100 | > 100 | > 100 | > 100 | 57.5 | > 100 | > 100 | > 100 | 44.4 |

| Compound | TGI (SNB-19 CNS) [µM] | TGI (HS 578T breast) [µM] | TGI (SR leukemia) [µM] | TGI (UACC-62 melanoma) [µM] | TGI (A498 renal) [µM] | TGI (ACHN renal) [µM] | TGI (MOLT-4 leukemia) [µM] | TGI (COLO 205 colon) [µM] | TGI (UACC-257 melanoma) [µM] | TGI (MDA-N) [µM] | TGI (CAKI-1 renal) [µM] | TGI (LOX IMVI melanoma) [µM] |
| --- | --- | --- | --- | --- | --- | --- | --- | --- | --- | --- | --- | --- |
| Cc1ccc2c(c1)C(C1Cc3c(C)cccc3C1=O)OC2=O (centres undefined) | > 100 | > 100 | > 100 | > 100 | > 100 | > 100 | > 100 | > 100 | > 100 | > 100 | > 100 | > 100 |
| O=C(O)CCC(=O)Nc1ccc2c(c1)S(=O)(=O)N(CC(=O)O)C2=O | > 100 | > 100 | > 100 | > 100 | > 100 | > 100 | > 100 | > 100 | > 100 | > 100 | > 100 | > 100 |
| O=C(/C=C/c1ccc(O)c(O)c1)NC(CO)C(=O)O (centres undefined) | > 100 | > 100 | > 100 | > 100 | > 100 | > 100 | > 100 | > 100 | > 100 | > 100 | > 100 | > 100 |
| COc1ccc(NC(=O)C2=C(SC)C(C#N)C(=O)N=C2N)cc1 (centres undefined) | > 100 | > 100 | > 100 | > 100 | > 100 | > 100 | > 100 | > 100 | > 100 | > 100 | > 100 | > 100 |
| NC(=S)N/N=C/c1cc(CN2CCOCC2)c(N)cn1 | > 100 | > 100 | > 100 | > 100 | > 100 | > 100 | > 100 | > 100 | > 100 | > 100 | > 100 | > 100 |
| CN1CC=C(OP(=O)(NCc2ccccc2)N(CCCl)CCCl)CC1 (centres undefined) | > 100 | > 100 | > 100 | > 100 | > 100 | > 100 | > 100 | > 100 | > 100 | > 100 | > 100 | > 100 |
| CC[C@@]1(O)C(=O)OCc2c1c(Cl)c1n(c2=O)Cc2cc3ccccc3nc2-1 | 56.7 | > 100 | > 23.7 | 3.38 | 8.45 | 6.05 | 19.3 | > 100 | 26.7 | > 100 | 16.4 | 4.01 |
| CC(=O)NNC=N/C(C#N)=C(\N)C#N | > 100 | > 100 | > 100 | > 100 | > 100 | > 100 | > 100 | > 100 | > 100 | > 100 | > 100 | > 100 |
| COC(=O)n1c(=O)nc2c3c(ncn21)Oc1c(c(-c2ccccc2)nn1-c1ccccc1)C3c1ccc(Cl)cc1 (centres undefined) | 3.13 | 2.62 | 4.31 | 3.6 | 5.02 | 3.21 |  | 2.76 | 3.76 | 3.01 | 2.98 | 2.79 |
| CN(C(=O)C1=CCCCCC1)c1ccccc1I | > 100 | 35.5 | > 100 | > 100 | > 100 | > 100 | > 100 | 37.6 | > 100 | > 100 | > 100 | > 100 |
| C[N+](C)(C)CC1Cc2ccccc2C1=O (centres undefined) | > 10 | > 10 | 7.11 | > 10 | > 10 | > 10 | 4.95 | > 6.59 | > 10 | > 10 | > 8.58 | > 10 |
| CCOC(=O)CCc1c(C(=O)OCC)[nH]c(/C=C2/NC(=O)C(C)=C2CC)c1C | 37.2 | 95.3 | 20.4 | 19.7 | 77.6 | 60.9 | 13.1 | 33.2 | 25.3 | 26.6 | 80.2 | 21 |
| Cc1ccc2c(ccc3c[n+]4ccccc4c(C)c32)c1 | 12.8 | 15.3 | 46.3 |  | > 100 | 39 | > 100 | 3.84 | 5.59 | > 100 | 65.5 | 27.8 |
| O=c1nc2n(CCO)c(-c3ccccc3)c(-c3ccccc3)nc-2c(=O)[nH]1 | > 100 | > 100 | > 100 | > 100 | > 100 | > 100 | > 100 | > 100 | > 100 | > 100 | > 100 | > 100 |
| COc1c(O)cc(/C=C/c2cc(O)cc3c2[C@@]2(C(=O)O3)c3c(O)cc(O)cc3OC2c2cccc(O)c2)cc1O (some centres undefined) | > 100 | > 100 | 26.5 | 72 | > 100 | > 100 | 11 | > 100 | > 100 | > 100 | > 100 | > 100 |
| COc1ccc(CSCc2cc(OC)c(OC)c(OC)c2)cc1 | > 100 | > 100 | > 100 | > 100 | > 100 | > 100 | > 100 | > 100 | > 31.6 | > 100 | > 100 | > 31.6 |

From PubChem BioAssay (NCI)
